According to ChEMBL document CHEMBL5506037, “Synthesis of Heterocyclic Ring-Fused Bisnoralcohol Derivatives as Novel Small-Molecule Antiosteoporosis Agents” (J Med Chem, 2024):

Assays:
[1] = test system: BMMC; experiment: Anti-osteoclastogenesis activity in M-CSF/RANKL-induced C57BL/6J mouse BMMC cells assessed as inhibition of osteoclast differentiation at 1 uM incubated for 7 days by TRAP staining based analysis relative to control; assay type: functional; settings: 168 h, time 7 day
[2] = Cytotoxicity against M-CSF induced C57BL/6J mouse BMMC cells assessed as cell viability at 10 uM incubated for 48 hrs by CCK-8 assay relative to control; assay type: toxicity, cell-based; settings: read-out: Activity
[3] = test system: BMMC; experiment: Anti-osteoclastogenesis activity in M-CSF/RANKL-induced C57BL/6J mouse BMMC cells assessed as inhibition of osteoclast differentiation at 0.1 uM incubated for 7 days by TRAP staining based analysis relative to control; assay type: functional; settings: 168 h, time 7 day
[4] = test system: BMMC; experiment: Anti-osteoclastogenesis activity in M-CSF/RANKL-induced C57BL/6J mouse BMMC cells assessed as inhibition of osteoclast differentiation at 5 uM incubated for 7 days by TRAP staining based analysis relative to control; assay type: functional; settings: 168 h, time 7 day
[5] = test system: BMMC; experiment: Anti-osteoclastogenesis activity in M-CSF/RANKL-induced C57BL/6J mouse BMMC cells assessed as inhibition of osteoclast differentiation at 10 uM incubated for 7 days by TRAP staining based analysis relative to control; assay type: functional; settings: 168 h, time 7 day
[6] = test system: BMMC; experiment: Anti-osteoclastogenesis activity in M-CSF/RANKL-induced C57BL/6J mouse BMMC cells assessed as inhibition of osteoclast differentiation incubated for 7 days by TRAP staining based analysis; assay type: functional, cell-based; settings: 168 h
[7] = Toxicity in ovariectomized female C57BL/6 mouse assessed as reduction in body weight at 25 ug/kg, sc administered every day for 6 weeks; assay type: organism-based; settings: in vivo, 0.025 mg/kg, 1008 h, dose 25 µg/kg
[8] = test system: Mus musculus; experiment: Anti-osteoporosis activity in ovariectomized C57BL/6 mouse assessed as prevention of bone loss by measuring increase in BV/TV at 25 ug/kg, sc administered every day for 6 weeks by micro-CT analysis relative to control; assay type: functional; settings: dose 25 µg/kg
[9] = test system: Mus musculus; experiment: Anti-osteoporosis activity in ovariectomized C57BL/6 mouse assessed as prevention of bone loss by measuring increase in trabecular number at 25 ug/kg, sc administered every day for 6 weeks by micro-CT analysis relative to control; assay type: functional
[10] = test system: Mus musculus; experiment: Anti-osteoporosis activity in ovariectomized C57BL/6 mouse assessed as prevention of bone loss by measuring increase in trabecular thickness at 25 ug/kg, sc administered every day for 6 weeks by micro-CT analysis relative to control; assay type: functional
[11] = test system: Mus musculus; experiment: Anti-osteoporosis activity in ovariectomized C57BL/6 mouse assessed as prevention of bone loss by measuring decrease in trabecular spacing at 25 ug/kg, sc administered every day for 6 weeks by micro-CT analysis relative to control; assay type: functional; parameters: scale not given: the % may be the effect or the level left

| Compound | inhibition at 1 µM [1] [%] | viability at 48 h, 10 µM [2] [%] | inhibition at 0.1 µM [3] [%] | inhibition at 5 µM [4] [%] | inhibition at 10 µM [5] [%] | further results |
| --- | --- | --- | --- | --- | --- | --- |
| CCCCCCNC(=O)[C@@H](C)[C@H]1CC[C@H]2[C@@H]3CC=C4C(C)(C)c5nnsc5C[C@]4(C)[C@H]3CC[C@]12C | 87.2 | ≥ 100 | 50.1 | – | – | – |
| C[C@H](C(=O)Nc1nccs1)[C@H]1CC[C@H]2[C@@H]3CC=C4C(C)(C)c5nnsc5C[C@]4(C)[C@H]3CC[C@]12C | 85.9 | ≥ 100 | 19.2 | – | – | – |
| C[C@H](CO)[C@H]1CC[C@H]2[C@@H]3CC=C4C(C)(C)c5nonc5C[C@]4(C)[C@H]3CC[C@]12C | 42.4 | ≥ 100 | – | 90.5 | 100 | – |
| CCNC(=O)C[C@@H](C)[C@H]1CC[C@H]2[C@@H]3CC=C4C(C)(C)c5nnsc5C[C@]4(C)[C@H]3CC[C@]12C | 99.5 | ≥ 100 | 21.9 | – | – | – |
| C[C@H](C(=O)Nc1ccc(Br)cc1)[C@H]1CC[C@H]2[C@@H]3CC=C4C(C)(C)c5nnsc5C[C@]4(C)[C@H]3CC[C@]12C | 65.1 | ≥ 100 | 0 | – | – | – |
| C[C@H](CO)[C@H]1CC[C@H]2[C@@H]3CC=C4C(C)(C)c5nc(N)ncc5C[C@]4(C)[C@H]3CC[C@]12C | 25.9 | ≥ 100 | – | 87.3 | 100 | – |
| C[C@H](CO)[C@H]1CC[C@H]2[C@@H]3CC=C4C(C)(C)c5nnsc5C[C@]4(C)[C@H]3CC[C@]12C | 75.8 | ≥ 100 | – | 100 | 100 | – |
| C[C@H](CO)[C@H]1CC[C@H]2[C@@H]3CCC4=CC(=O)CC[C@]4(C)[C@H]3CC[C@]12C | – | ≥ 100 | – | 78.6 | 100 | IC50 [6]: 2320 nM |
| CC(C)CNC(=O)[C@@H](C)[C@H]1CC[C@H]2[C@@H]3CC=C4C(C)(C)c5nnsc5C[C@]4(C)[C@H]3CC[C@]12C | 100 | ≥ 100 | 72.1 | – | – | – |
| C[C@H](C(=O)Nc1ccc(Cl)cc1)[C@H]1CC[C@H]2[C@@H]3CC=C4C(C)(C)c5nnsc5C[C@]4(C)[C@H]3CC[C@]12C | 81 | ≥ 100 | 45.2 | – | – | – |
| CCCCNC(=O)[C@@H](C)[C@H]1CC[C@H]2[C@@H]3CC=C4C(C)(C)c5nnsc5C[C@]4(C)[C@H]3CC[C@]12C | 100 | ≥ 100 | 76.3 | – | – | – |
| C[C@H](CO)[C@H]1CC[C@H]2[C@@H]3CC=C4C(C)(C)c5c(cnn5-c5ccccc5)C[C@]4(C)[C@H]3CC[C@]12C | 0 | ≥ 100 | – | 0 | 18.9 | – |
| CCNC(=O)CCC[C@@H](C)[C@H]1CC[C@H]2[C@@H]3CC=C4C(C)(C)c5nnsc5C[C@]4(C)[C@H]3CC[C@]12C | 100 | ≥ 100 | 15.8 | – | – | – |
| CCNC(=O)CCCC[C@@H](C)[C@H]1CC[C@H]2[C@@H]3CC=C4C(C)(C)c5nnsc5C[C@]4(C)[C@H]3CC[C@]12C | 98.8 | ≥ 100 | 7.4 | – | – | – |
| CCCNC(=O)[C@@H](C)[C@H]1CC[C@H]2[C@@H]3CC=C4C(C)(C)c5nnsc5C[C@]4(C)[C@H]3CC[C@]12C | 100 | ≥ 100 | 72.7 | – | – | – |
| C[C@H](CO)[C@H]1CC[C@H]2[C@@H]3CC=C4C(C)(C)c5nc6ccccc6cc5C[C@]4(C)[C@H]3CC[C@]12C | 37.8 | ≥ 100 | – | 47.2 | 93.9 | – |
| C[C@H](CO)[C@H]1CC[C@H]2[C@@H]3CC=C4C(C)(C)c5nccnc5C[C@]4(C)[C@H]3CC[C@]12C | 13.9 | ≥ 100 | – | 44.9 | 67.8 | – |
| C[C@H](C(=O)Nc1ccncc1)[C@H]1CC[C@H]2[C@@H]3CC=C4C(C)(C)c5nnsc5C[C@]4(C)[C@H]3CC[C@]12C | 85.5 | ≥ 100 | 30.2 | – | – | – |
| C[C@H](C(=O)N1CCOCC1)[C@H]1CC[C@H]2[C@@H]3CC=C4C(C)(C)c5nnsc5C[C@]4(C)[C@H]3CC[C@]12C | 91.9 | ≥ 100 | 53.5 | – | – | – |
| C[C@H](C(=O)O)[C@H]1CC[C@H]2[C@@H]3CC=C4C(C)(C)c5nnsc5C[C@]4(C)[C@H]3CC[C@]12C | 86.8 | ≥ 100 | 45.8 | – | – | – |
| CNC(=O)[C@@H](C)[C@H]1CC[C@H]2[C@@H]3CC=C4C(C)(C)c5nnsc5C[C@]4(C)[C@H]3CC[C@]12C | 100 | ≥ 100 | 49.3 | – | – | – |
| COc1ccc(NC(=O)[C@@H](C)[C@H]2CC[C@H]3[C@@H]4CC=C5C(C)(C)c6nnsc6C[C@]5(C)[C@H]4CC[C@]23C)cc1 | 100 | ≥ 100 | 69.6 | – | – | – |
| Cc1nc2c(o1)C(C)(C)C1=CC[C@H]3[C@@H]4CC[C@H]([C@H](C)CO)[C@@]4(C)CC[C@@H]3[C@@]1(C)C2 | 43 | ≥ 100 | – | 73.8 | 89.8 | – |
| CCNC(=O)CC[C@@H](C)[C@H]1CC[C@H]2[C@@H]3CC=C4C(C)(C)c5nnsc5C[C@]4(C)[C@H]3CC[C@]12C | 100 | ≥ 100 | 46.4 | – | – | – |
| CC[C@H](C)[C@H](NC(=O)[C@H](CCC(=O)O)NC(=O)[C@H](CO)NC(=O)[C@@H](NC(=O)[C@@H](N)CO)C(C)C)C(=O)N[C@@H](CCC(N)=O)C(=O)N[C@@H](CC(C)C)C(=O)N[C@@H](CCSC)C(=O)N[C@@H](Cc1cnc[nH]1)C(=O)N[C@@H](CC(N)=O)C(=O)N[C@@H](CC(C)C)C(=O)NCC(=O)N[C@@H](CCCCN)C(=O)N[C@@H](Cc1cnc[nH]1)C(=O)N[C@@H](CC(C)C)C(=O)N[C@@H](CC(N)=O)C(=O)N[C@@H](CO)C(=O)N[C@@H](CCSC)C(=O)N[C@@H](CCC(=O)O)C(=O)N[C@@H](CCCNC(=N)N)C(=O)N[C@H](C(=O)N[C@@H](CCC(=O)O)C(=O)N[C@@H](Cc1c[nH]c2ccccc12)C(=O)N[C@@H](CC(C)C)C(=O)N[C@@H](CCCNC(=N)N)C(=O)N[C@@H](CCCCN)C(=O)N[C@@H](CCCCN)C(=O)N[C@@H](CC(C)C)C(=O)N[C@@H](CCC(N)=O)C(=O)N[C@@H](CC(=O)O)C(=O)N[C@H](C(=O)N[C@@H](Cc1cnc[nH]1)C(=O)N[C@@H](CC(N)=O)C(=O)N[C@@H](Cc1ccccc1)C(=O)O)C(C)C)C(C)C [TERIPARATIDE] | – | – | – | – | – | Activity [7]: Non-Toxic; Activity [8]: 81.68%; Activity [9]: 41.75%; Activity [10]: 86.08%; Activity [11]: 52.76% |
| C[C@H](CO)[C@H]1CC[C@H]2[C@@H]3CC=C4C(C)(C)c5[nH]ncc5C[C@]4(C)[C@H]3CC[C@]12C | 34.6 | ≥ 100 | – | 87 | 100 | – |
| C[C@H](C(=O)NC1CCCCC1)[C@H]1CC[C@H]2[C@@H]3CC=C4C(C)(C)c5nnsc5C[C@]4(C)[C@H]3CC[C@]12C | 100 | ≥ 100 | 54 | – | – | – |
| C[C@H](C(=O)Nc1ccc(F)cc1)[C@H]1CC[C@H]2[C@@H]3CC=C4C(C)(C)c5nnsc5C[C@]4(C)[C@H]3CC[C@]12C | 91.9 | ≥ 100 | 47.5 | – | – | – |
| C=CCNC(=O)[C@@H](C)[C@H]1CC[C@H]2[C@@H]3CC=C4C(C)(C)c5nnsc5C[C@]4(C)[C@H]3CC[C@]12C | 98.3 | ≥ 100 | 61.1 | – | – | – |
